“And” between values parts separate entries of the source, which are not always exact repeats. Equal entries are not always repeated. Inconclusive results and toxic doses are left out. How the source made its calls: active means survival T/C of 150% or more; inactive means T/C below 125% in these data.
System: B6C3F1 mice, B16 melanoma ip, median survival T/C
Experiment: NCI In Vivo Anticancer Drug Screen. Data for tumor model B16 Melanoma (intraperitoneal) in B6C3F1 mice
Settings: endpoint: median survival time, higher = longer survival
Summary of the method: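 Mice bearing transplanted tumor were dosed with compound or vehicle, and survival was recorded. Activity is expressed as the treated-group measurement (T) divided by the vehicle control measurement (C).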

[1] = dose: 6.25 mg/kg/injection, schedule: Q01DX009 (ip), vehicle: saline
[2] = dose: 12.5 mg/kg/injection, schedule: Q01DX009 (ip), vehicle: saline
[3] = dose: 50.0 mg/kg/injection, schedule: Q01DX009 (ip), vehicle: saline with Tween-80
[4] = dose: 100.0 mg/kg/injection, schedule: Q01DX009 (ip), vehicle: saline with Tween-80
[5] = dose: 200.0 mg/kg/injection, schedule: Q01DX009 (ip), vehicle: saline with Tween-80
[6] = dose: 12.5 mg/kg/injection, schedule: Q01DX009 (ip), vehicle: saline with Tween-80
[7] = dose: 25.0 mg/kg/injection, schedule: Q01DX009 (ip), vehicle: saline with Tween-80
[8] = dose: 12.5 mg/kg/injection, schedule: Q01DX009 (ip), vehicle: Klucel (hydroxypropylcellulose) (HPC)
[9] = dose: 50.0 mg/kg/injection, schedule: Q01DX009 (ip), vehicle: Klucel (hydroxypropylcellulose) (HPC)
[10] = dose: 100.0 mg/kg/injection, schedule: Q01DX009 (ip), vehicle: Klucel (hydroxypropylcellulose) (HPC)
[11] = dose: 12.5 mg/kg/injection, schedule: Q01DX009 (ip), vehicle: water
[12] = dose: 25.0 mg/kg/injection, schedule: Q01DX009 (ip), vehicle: water
[13] = dose: 50.0 mg/kg/injection, schedule: Q01DX009 (ip), vehicle: water

Measured: T/C

CCC(/C=C/C1OC(=O)C=CC1C)=C\C(C)C/C=C/C(C)=C/C(C)C(=O)C(C)C(O)C(C)C/C(C)=C/C(=O)O (stereo not given)
inactive: dose: 6.25 micrograms/kg/injection, schedule: Q01DX009 (sc), vehicle: other 105 % of control | dose: 12.5 micrograms/kg/injection, schedule: Q01DX009 (sc), vehicle: other 102 % of control | dose: 25.0 micrograms/kg/injection, schedule: Q01DX009 (sc), vehicle: other 115 % of control
active: dose: 12.5 micrograms/kg/injection, schedule: Q01DX009 (ip), vehicle: other 159 % of control | dose: 12.5 micrograms/kg/injection, schedule: Q01DX009 (ip), vehicle: saline + alcohol 156 % of control and 198 % of control | dose: 25.0 micrograms/kg/injection, schedule: Q01DX009 (ip), vehicle: saline + alcohol 165 % of control

C/C=C1\C(=O)O[C@@]23C=C[C@H]4C(C(=O)OC)=CO[C@@H](O[C@H]12)[C@H]43
inactive: dose: 3.75 mg/kg/injection, schedule: Q01DX009 (ip), vehicle: Klucel (hydroxypropylcellulose) (HPC) 101 % of control | dose: 7.5 mg/kg/injection, schedule: Q01DX009 (ip), vehicle: Klucel (hydroxypropylcellulose) (HPC) 95 % of control | dose: 15.0 mg/kg/injection, schedule: Q01DX009 (ip), vehicle: Klucel (hydroxypropylcellulose) (HPC) 95 % of control

Oc1ccccc1C=NCCC[N-]CCCN=Cc1ccccc1O.[Co]
inactive: dose: 6.25 mg/kg/injection, schedule: Q01DX008 (ip), vehicle: saline 97 % of control | [1] 101 % of control | dose: 12.5 mg/kg/injection, schedule: Q01DX008 (ip), vehicle: saline 107 % of control | [2] 107 % of control | dose: 25.0 mg/kg/injection, schedule: Q01DX008 (ip), vehicle: saline 96 % of control | dose: 25.0 mg/kg/injection, schedule: Q01DX009 (ip), vehicle: saline 113 % of control | dose: 50.0 mg/kg/injection, schedule: Q01DX008 (ip), vehicle: saline 86 % of control | dose: 50.0 mg/kg/injection, schedule: Q01DX009 (ip), vehicle: saline 105 % of control | dose: 100.0 mg/kg/injection, schedule: Q01DX008 (ip), vehicle: saline 95 % of control

N#CCc1c[nH]c2ccc([N+](=O)[O-])cc12
inactive: [3] 102 % of control | [4] 100 % of control | [5] 108 % of control

CN(C)P(=O)(Oc1ccccc1)N(C)C
inactive: [6] 114 % of control and 98 % of control | [7] 100 % of control and 101 % of control | [3] 98 % of control and 99 % of control | [4] 110 % of control and 99 % of control | [5] 101 % of control and 103 % of control

C/C=C(\C)c1cc(=O)c2c(C)cc3c(c2o1)C(=O)c1c(O)c(C2CC(C)(N(C)C)C(O)C(C)O2)cc(C2CC(N(C)C)C(O)C(C)O2)c1C3=O (stereo not given)
inactive: dose: 31.25 micrograms/kg/injection, schedule: Q01DX009 (ip), vehicle: saline 111 % of control | dose: 62.5 micrograms/kg/injection, schedule: Q01DX009 (ip), vehicle: saline 114 % of control | dose: 1250.0 micrograms/kg/injection, schedule: Q01DX009 (ip), vehicle: saline 93 % of control
active: dose: 156.25 micrograms/kg/injection, schedule: Q01DX009 (ip), vehicle: saline 176 % of control

CCC/C(=N/NC(N)=O)C(OC)OC
inactive: dose: 37.5 mg/kg/injection, schedule: Q01DX009 (ip), vehicle: saline 110 % of control | dose: 75.0 mg/kg/injection, schedule: Q01DX009 (ip), vehicle: saline 98 % of control | dose: 150.0 mg/kg/injection, schedule: Q01DX009 (ip), vehicle: saline 106 % of control

CN(C)N=Nc1cn[nH]c1C(N)=O
inactive: [8] 98 % of control | dose: 25.0 mg/kg/injection, schedule: Q01DX009 (ip), vehicle: Klucel (hydroxypropylcellulose) (HPC) 91 % of control | [9] 96 % of control | [10] 87 % of control | dose: 200.0 mg/kg/injection, schedule: Q01DX009 (ip), vehicle: Klucel (hydroxypropylcellulose) (HPC) 89 % of control | dose: 400.0 mg/kg/injection, schedule: Q01DX009 (ip), vehicle: Klucel (hydroxypropylcellulose) (HPC) 86 % of control

CC(=O)N(C)C
inactive: dose: 122.5 mg/kg/injection, schedule: Q01DX009 (ip), vehicle: saline 89 % of control | dose: 225.0 mg/kg/injection, schedule: Q01DX009 (ip), vehicle: saline 95 % of control | dose: 450.0 mg/kg/injection, schedule: Q01DX009 (ip), vehicle: saline 95 % of control | dose: 900.0 mg/kg/injection, schedule: Q01DX009 (ip), vehicle: saline 105 % of control | dose: 1800.0 mg/kg/injection, schedule: Q01DX009 (ip), vehicle: saline 114 % of control

CC(O)CNCCNc1ccc(NCCNCC(C)O)c2c1C(=O)c1c(O)ccc(O)c1C2=O (stereo not given)
active: dose: 1.0 mg/kg/injection, schedule: Q01DX009 (ip), vehicle: distilled water + Tween-80 169 % of control | dose: 2.0 mg/kg/injection, schedule: Q01DX009 (ip), vehicle: distilled water + Tween-80 194 % of control | dose: 4.0 mg/kg/injection, schedule: Q01DX009 (ip), vehicle: distilled water + Tween-80 221 % of control | dose: 8.0 mg/kg/injection, schedule: Q01DX009 (ip), vehicle: distilled water + Tween-80 180 % of control

Cc1ccc(S(=O)(=O)NC(=S)S)cc1
inactive: [6] 92 % of control | [7] 92 % of control | [3] 95 % of control | [4] 97 % of control | [5] 94 % of control

S=C1NCc2cncnc2N1
inactive: dose: 3.12 mg/kg/injection, schedule: Q01DX009 (ip), vehicle: Klucel (hydroxypropylcellulose) (HPC) 108 % of control | dose: 6.25 mg/kg/injection, schedule: Q01DX009 (ip), vehicle: Klucel (hydroxypropylcellulose) (HPC) 107 % of control | [8] 88 % of control and 102 % of control

CN1CCN(CCCN2c3ccccc3Sc3ccc(C(F)(F)F)cc32)CC1
inactive: dose: 3.12 mg/kg/injection, schedule: Q01DX009 (ip), vehicle: saline 100 % of control | [1] 106 % of control | dose: 8.0 mg/kg/injection, schedule: Q01DX009 (ip), vehicle: saline 107 % of control | [2] 98 % of control | dose: 16.0 mg/kg/injection, schedule: Q01DX009 (ip), vehicle: saline 93 % of control | dose: 32.0 mg/kg/injection, schedule: Q01DX009 (ip), vehicle: saline 87 % of control

CC(C)(C)OC(=O)NC(CCCCNC(=O)C(F)(F)F)C(=O)ON1C(=O)CCC1=O (stereo not given)
inactive: [6] 91 % of control | [7] 94 % of control | [3] 96 % of control and 102 % of control

CCN=C=NCCCN(C)C
inactive: [1] 109 % of control | [2] 114 % of control

C=C1C(=O)OC2/C=C(\CO)C(OC(C)=O)CC(O)/C(C)=C/C(OC(=O)C(C)CC)C12 (stereo not given)
inactive: dose: 0.2 mg/kg/injection, schedule: Q01DX009 (ip), vehicle: Klucel (hydroxypropylcellulose) (HPC) 96 % of control | dose: 0.39 mg/kg/injection, schedule: Q01DX009 (ip), vehicle: Klucel (hydroxypropylcellulose) (HPC) 103 % of control | dose: 0.78 mg/kg/injection, schedule: Q01DX009 (ip), vehicle: Klucel (hydroxypropylcellulose) (HPC) 89 % of control and 103 % of control | dose: 1.56 mg/kg/injection, schedule: Q01DX009 (ip), vehicle: Klucel (hydroxypropylcellulose) (HPC) 110 % of control and 100 % of control

CCOC(=O)NC(N)=O
inactive: [3] 101 % of control | [4] 117 % of control | [5] 102 % of control | dose: 400.0 mg/kg/injection, schedule: Q01DX009 (ip), vehicle: saline with Tween-80 105 % of control

CC(=O)NC(C=O)OCC=O (stereo not given)
inactive: dose: 6.25 mg/kg/injection, schedule: Q01DX009 (ip), vehicle: water 112 % of control | [11] 111 % of control and 106 % of control | [12] 109 % of control and 105 % of control | [13] 103 % of control and 106 % of control | dose: 100.0 mg/kg/injection, schedule: Q01DX009 (ip), vehicle: water 111 % of control and 117 % of control | dose: 200.0 mg/kg/injection, schedule: Q01DX009 (ip), vehicle: water 112 % of control

O=C1CN(CCN2CC(=O)N(CN3CCOCC3)C(=O)C2)CC(=O)N1CN1CCOCC1
active: [13] 150 % of control and 154 % of control
inactive: [11] 107 % of control | [12] 114 % of control and 118 % of control (2×)

O=C(O)CCCCCCCC(=O)O
inactive: dose: 12.5 mg/kg/injection, schedule: Q01DX009 (ip), vehicle: distilled water + Tween-80 91 % of control | dose: 25.0 mg/kg/injection, schedule: Q01DX009 (ip), vehicle: distilled water + Tween-80 101 % of control | dose: 50.0 mg/kg/injection, schedule: Q01DX009 (ip), vehicle: distilled water + Tween-80 101 % of control | dose: 100.0 mg/kg/injection, schedule: Q01DX009 (ip), vehicle: distilled water + Tween-80 91 % of control

O=C(NC(Cc1ccccc1)C(=O)O)OCc1ccccc1 (stereo not given)
inactive: [9] 99 % of control | [10] 102 % of control
